According to ChEMBL document CHEMBL5053504, “Potent Inhibition of HIF1α and p300 Interaction by a Constrained Peptide Derived from CITED2” (J Med Chem, 2021):
The source made the active and inactive calls. The calls are words filed in the database; no cut-off is given here. Where a SMILES comes first, the peptide text is derived from it.

Assays:
[1] = Drug uptake in human HeLa cells measured after 4 hrs by tryphan blue staining based flow cytometry; type: ADME, cell-based
[2] = biological target: T1, CREB-binding protein/Histone acetyltransferase p300 (Homo sapiens, UniProt Q09472+Q92793); experiment: Binding affinity to His-tagged human CH1 domain of p300 (323 to 423 residues)expressed in Escherichia coli Rosetta (DE3)/CBP (unknown origin) by fluorescence polarization assay
HeLa [3] = experiment: Cytotoxicity against human HeLa cells assessed as cell membrane disruption measured after 4 hrs under hypoxia condition by LDH assay; type: functional, cell-based
[4] = Stability of the compound in mouse serum by LC/MS analysis; type: ADME, cell-free
[5] = biological target: T1, CREB-binding protein/Histone acetyltransferase p300; experiment: Binding affinity to p300/CBP in hypoxia-induced human HeLa cells assessed as p300/CBP pull down at 25 uM measured after 12 hrs pulldown-based Western blot analysis
HeLa [6] = experiment: Downregulation of HK1 mRNA expression in human HeLa cells at 25 uM measured after 24 hrs under hypoxia condition by RT-PCR analysis; type: functional, cell-based
[7] = biological target: T2, HIF1A/p300/CREB-binding protein (Homo sapiens) (UniProt Q09472+Q16665+Q92793); experiment: Inhibition of hypoxia-induced HIF1alpha/P300-CBP interaction mediated gene transcriptional activity in human HeLa cells co-transfected with luciferase reporter plasmid containing HRE and pRL-CMV vector at 25 uM incubated for 24 hrs under hypoxic condition by HRE-dependent dual luciferase reporter gene assay; type: cell-based
HeLa [8] = experiment: Cytotoxicity against human HeLa cells assessed as reduction in cell viability measured after 24 hrs under hypoxia condition by MTT assay; type: functional, cell-based
HeLa [9] = experiment: Downregulation of GLUT1 protein expression in human HeLa cells at 25 uM measured after 24 hrs under hypoxia condition by Western blot analysis; type: functional, cell-based
[10] = biological target: T2, HIF1A/p300/CREB-binding protein (Homo sapiens); experiment: Inhibition of HA-tagged CTAD (786 to 826 residues) HIF1alpha/Flag-tagged P300 CH1 domain (323 to 423 residues)/CBP (unknown origin) interaction expressed in HEK293T cells measured after 24 hrs by co-iimunoprecipitation assay; type: cell-based
HeLa [11] = experiment: Cytotoxicity against human HeLa cells assessed as cell growth inhibition measured after 24 hrs by MTT assay; type: functional, cell-based
HeLa [12] = experiment: Downregulation of HK1 protein expression in human HeLa cells at 25 uM measured after 24 hrs under hypoxia condition by Western blot analysis; type: functional, cell-based
A549 = experiment: Cytotoxicity against human A549 cells assessed as cell growth inhibition measured after 24 hrs by MTT assay; type: functional, cell-based
HeLa [13] = experiment: Downregulation of VEGF mRNA expression in human HeLa cells at 25 uM measured after 24 hrs under hypoxia condition by RT-PCR analysis; type: functional, cell-based
HeLa [14] = experiment: Downregulation of GLUT1 mRNA expression in human HeLa cells at 25 uM measured after 24 hrs under hypoxia condition by RT-PCR analysis; type: functional, cell-based
[15] = biological target: T2, HIF1A/p300/CREB-binding protein (Homo sapiens); experiment: Inhibition of hypoxia-induced HIF1alpha/P300-CBP interaction in human HeLa cells at 10 uM measured after 24 hrs by co-immunoprecipiation assay; type: cell-based
MDA-MB-231 = experiment: Cytotoxicity against human MDA-MB-231 cells assessed as cell growth inhibition measured after 24 hrs by MTT assay; type: functional, cell-based
HeLa [16] = experiment: Downregulation of VEGF protein expression in human HeLa cells at 25 uM measured after 24 hrs under hypoxia condition by Western blot analysis; type: functional, cell-based

T1 sequence (Q09472 whole entry, looked up, the tested form may be a part): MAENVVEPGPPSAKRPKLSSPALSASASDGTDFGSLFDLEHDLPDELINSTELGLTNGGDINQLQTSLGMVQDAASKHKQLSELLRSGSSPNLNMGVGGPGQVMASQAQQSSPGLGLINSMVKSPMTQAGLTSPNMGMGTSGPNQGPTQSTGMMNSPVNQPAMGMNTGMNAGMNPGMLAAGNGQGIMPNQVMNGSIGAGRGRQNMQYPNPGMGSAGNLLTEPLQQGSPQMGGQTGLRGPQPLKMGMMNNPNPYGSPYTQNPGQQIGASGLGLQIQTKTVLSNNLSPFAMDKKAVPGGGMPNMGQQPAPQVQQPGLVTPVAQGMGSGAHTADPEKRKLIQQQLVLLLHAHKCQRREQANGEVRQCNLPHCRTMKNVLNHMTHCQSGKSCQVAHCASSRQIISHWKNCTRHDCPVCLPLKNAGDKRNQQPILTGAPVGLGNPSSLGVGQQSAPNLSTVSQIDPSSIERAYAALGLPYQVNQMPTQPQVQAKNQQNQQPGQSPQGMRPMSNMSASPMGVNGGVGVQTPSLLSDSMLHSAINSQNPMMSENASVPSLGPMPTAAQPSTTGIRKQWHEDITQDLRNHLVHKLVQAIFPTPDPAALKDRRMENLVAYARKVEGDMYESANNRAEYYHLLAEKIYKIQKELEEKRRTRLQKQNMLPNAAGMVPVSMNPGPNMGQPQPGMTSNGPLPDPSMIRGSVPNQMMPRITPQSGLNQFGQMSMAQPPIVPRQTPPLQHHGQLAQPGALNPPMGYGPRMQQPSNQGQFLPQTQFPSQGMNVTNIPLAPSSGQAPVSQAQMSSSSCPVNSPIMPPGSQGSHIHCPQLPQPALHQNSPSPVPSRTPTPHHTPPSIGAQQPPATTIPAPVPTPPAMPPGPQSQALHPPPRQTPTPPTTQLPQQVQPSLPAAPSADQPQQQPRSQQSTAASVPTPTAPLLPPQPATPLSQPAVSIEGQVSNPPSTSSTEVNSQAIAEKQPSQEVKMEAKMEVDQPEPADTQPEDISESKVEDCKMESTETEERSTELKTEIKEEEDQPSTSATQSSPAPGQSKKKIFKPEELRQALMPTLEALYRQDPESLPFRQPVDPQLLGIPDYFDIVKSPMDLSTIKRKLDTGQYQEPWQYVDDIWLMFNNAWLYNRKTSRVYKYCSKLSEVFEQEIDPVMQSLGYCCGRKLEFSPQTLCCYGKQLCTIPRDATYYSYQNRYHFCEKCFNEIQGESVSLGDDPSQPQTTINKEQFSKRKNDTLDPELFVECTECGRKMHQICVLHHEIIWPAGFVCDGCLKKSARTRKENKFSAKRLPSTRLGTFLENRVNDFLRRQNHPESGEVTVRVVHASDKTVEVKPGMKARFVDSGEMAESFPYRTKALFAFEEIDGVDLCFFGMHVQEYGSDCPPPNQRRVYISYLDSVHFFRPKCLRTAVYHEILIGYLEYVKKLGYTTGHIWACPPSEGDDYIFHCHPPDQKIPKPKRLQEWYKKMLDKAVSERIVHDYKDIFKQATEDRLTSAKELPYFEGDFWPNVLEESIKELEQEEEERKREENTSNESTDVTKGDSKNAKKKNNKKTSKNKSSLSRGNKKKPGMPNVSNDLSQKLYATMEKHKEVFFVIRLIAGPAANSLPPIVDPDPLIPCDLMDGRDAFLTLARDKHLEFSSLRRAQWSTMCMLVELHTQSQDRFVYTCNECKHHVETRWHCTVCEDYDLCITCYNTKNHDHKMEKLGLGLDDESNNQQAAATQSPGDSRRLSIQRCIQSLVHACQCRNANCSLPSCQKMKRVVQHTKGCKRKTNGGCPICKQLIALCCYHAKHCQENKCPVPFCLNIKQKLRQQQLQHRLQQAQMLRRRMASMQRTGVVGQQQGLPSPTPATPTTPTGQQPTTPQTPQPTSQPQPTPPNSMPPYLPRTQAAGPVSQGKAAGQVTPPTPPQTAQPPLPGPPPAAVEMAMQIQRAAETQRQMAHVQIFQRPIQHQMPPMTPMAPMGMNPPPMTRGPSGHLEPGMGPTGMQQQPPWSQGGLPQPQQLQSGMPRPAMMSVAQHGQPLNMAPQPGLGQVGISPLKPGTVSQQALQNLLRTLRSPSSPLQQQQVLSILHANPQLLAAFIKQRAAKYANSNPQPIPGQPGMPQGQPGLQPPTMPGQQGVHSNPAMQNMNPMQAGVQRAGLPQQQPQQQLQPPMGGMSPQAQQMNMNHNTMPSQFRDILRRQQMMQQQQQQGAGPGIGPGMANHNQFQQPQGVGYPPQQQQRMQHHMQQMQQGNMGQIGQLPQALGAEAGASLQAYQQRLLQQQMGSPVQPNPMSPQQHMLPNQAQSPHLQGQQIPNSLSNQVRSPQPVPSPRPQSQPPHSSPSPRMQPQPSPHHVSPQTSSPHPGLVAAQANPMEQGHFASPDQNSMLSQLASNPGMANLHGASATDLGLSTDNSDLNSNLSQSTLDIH
T1 sequence (Q92793 whole entry, looked up, the tested form may be a part): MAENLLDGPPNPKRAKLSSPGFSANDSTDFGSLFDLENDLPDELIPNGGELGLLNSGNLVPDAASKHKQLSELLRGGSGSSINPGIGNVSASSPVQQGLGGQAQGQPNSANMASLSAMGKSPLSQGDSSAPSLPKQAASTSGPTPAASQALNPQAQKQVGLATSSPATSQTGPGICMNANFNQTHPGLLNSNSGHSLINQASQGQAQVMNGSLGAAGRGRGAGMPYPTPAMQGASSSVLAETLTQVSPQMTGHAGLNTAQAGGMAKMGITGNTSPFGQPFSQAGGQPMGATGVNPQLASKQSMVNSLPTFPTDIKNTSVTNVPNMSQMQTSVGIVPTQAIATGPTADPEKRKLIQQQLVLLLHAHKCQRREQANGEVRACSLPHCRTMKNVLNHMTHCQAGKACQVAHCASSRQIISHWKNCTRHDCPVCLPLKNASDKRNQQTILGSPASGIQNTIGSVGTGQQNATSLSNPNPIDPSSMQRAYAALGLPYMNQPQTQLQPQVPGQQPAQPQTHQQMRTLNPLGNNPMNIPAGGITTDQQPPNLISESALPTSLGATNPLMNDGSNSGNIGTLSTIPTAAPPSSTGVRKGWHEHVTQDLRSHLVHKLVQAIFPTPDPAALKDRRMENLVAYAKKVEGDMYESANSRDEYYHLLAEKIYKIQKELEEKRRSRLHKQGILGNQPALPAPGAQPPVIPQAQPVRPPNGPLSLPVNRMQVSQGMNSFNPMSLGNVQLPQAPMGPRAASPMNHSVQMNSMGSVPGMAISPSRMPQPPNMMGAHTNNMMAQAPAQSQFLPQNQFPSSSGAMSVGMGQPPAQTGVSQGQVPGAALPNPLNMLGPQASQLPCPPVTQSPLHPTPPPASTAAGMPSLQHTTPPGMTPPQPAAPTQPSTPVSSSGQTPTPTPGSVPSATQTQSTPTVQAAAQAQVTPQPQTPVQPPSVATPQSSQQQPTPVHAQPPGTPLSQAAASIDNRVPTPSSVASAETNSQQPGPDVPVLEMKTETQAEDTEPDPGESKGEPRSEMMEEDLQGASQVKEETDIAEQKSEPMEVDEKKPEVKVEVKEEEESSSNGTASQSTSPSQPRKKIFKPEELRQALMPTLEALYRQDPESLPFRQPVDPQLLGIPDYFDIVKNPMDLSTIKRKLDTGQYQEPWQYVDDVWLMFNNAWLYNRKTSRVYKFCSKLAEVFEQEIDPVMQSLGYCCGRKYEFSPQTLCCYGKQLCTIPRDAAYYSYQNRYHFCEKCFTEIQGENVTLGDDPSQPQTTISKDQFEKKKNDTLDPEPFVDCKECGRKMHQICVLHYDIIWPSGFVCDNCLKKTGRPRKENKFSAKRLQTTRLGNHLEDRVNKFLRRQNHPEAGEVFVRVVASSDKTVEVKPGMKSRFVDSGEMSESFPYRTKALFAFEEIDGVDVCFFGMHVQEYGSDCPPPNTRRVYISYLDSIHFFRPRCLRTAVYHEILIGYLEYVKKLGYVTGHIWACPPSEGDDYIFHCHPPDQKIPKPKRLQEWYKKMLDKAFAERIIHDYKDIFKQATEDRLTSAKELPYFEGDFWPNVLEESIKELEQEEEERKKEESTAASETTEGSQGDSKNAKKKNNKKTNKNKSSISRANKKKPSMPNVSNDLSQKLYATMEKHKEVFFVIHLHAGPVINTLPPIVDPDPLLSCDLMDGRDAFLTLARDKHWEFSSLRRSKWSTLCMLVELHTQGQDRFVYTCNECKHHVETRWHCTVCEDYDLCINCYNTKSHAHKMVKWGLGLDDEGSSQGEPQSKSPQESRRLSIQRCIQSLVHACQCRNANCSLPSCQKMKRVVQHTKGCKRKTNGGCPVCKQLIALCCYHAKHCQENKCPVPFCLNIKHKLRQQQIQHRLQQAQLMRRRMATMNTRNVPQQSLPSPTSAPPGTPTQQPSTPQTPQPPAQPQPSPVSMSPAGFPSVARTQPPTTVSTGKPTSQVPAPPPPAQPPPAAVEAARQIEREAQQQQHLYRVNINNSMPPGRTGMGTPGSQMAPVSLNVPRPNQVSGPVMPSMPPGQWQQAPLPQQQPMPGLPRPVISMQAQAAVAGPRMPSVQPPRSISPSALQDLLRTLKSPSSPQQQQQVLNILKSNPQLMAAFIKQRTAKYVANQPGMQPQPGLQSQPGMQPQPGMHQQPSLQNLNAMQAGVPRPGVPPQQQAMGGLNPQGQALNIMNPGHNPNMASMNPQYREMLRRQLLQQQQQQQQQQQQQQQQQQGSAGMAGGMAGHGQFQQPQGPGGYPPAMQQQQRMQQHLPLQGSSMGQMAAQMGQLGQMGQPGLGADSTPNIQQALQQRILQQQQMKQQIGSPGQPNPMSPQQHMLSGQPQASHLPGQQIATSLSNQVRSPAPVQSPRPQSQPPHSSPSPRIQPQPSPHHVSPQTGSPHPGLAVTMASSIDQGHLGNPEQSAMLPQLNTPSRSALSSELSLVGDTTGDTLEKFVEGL

Q: With H-DEEILMSLVIEMGLDRIKELPEL-OH as the compound, how does the Drug uptake [1] read?
A: Active

Q: Which Drug uptake [1] does the source give for H-DEEVLWSLVIEMGLDRIKELPEL-OH here?
A: Active

Q: Which Kd [2] does the source give for H-DEEILWSLVIEMGLDRWKELPEL-OH here?
A: 29.5 nM

Q: Which Kd [2] does the source give for “H-DEEVLMSLVIEMGLDRIKELPELWLGQNEFDFMTDF-OH” here?
A: 17.7 nM

Q: With `CC[C@H](C)[C@H](NC(=O)[C@H](CCCNC(=N)N)NC(=O)[C@H](CC(=O)O)NC(=O)[C@H](CC(C)C)NC(=O)CNC(=O)[C@H](CCSC)NC(=O)[C@H](CCC(=O)O)NC(=O)[C@@H](NC(=O)[C@@H](NC(=O)[C@H](CC(C)C)NC(=O)[C@H](CO)NC(=O)[C@H](CCSC)NC(=O)[C@H](CC(C)C)NC(=O)[C@@H](NC(=O)[C@H]1CNC(=O)[C@@H](N)CC(=O)N[C@@H](CC(=O)O)C(=O)N[C@@H](CCC(=O)O)C(=O)N1)C(C)C)C(C)C)[C@@H](C)CC)C(=O)N[C@@H](CCCCN)C(=O)N[C@@H](CCC(=O)O)C(=O)N[C@@H](CC(C)C)C(=O)N1CCC[C@H]1C(=O)N[C@@H](CCC(=O)O)C(=O)N[C@@H](CC(C)C)C(N)=O` as the compound, how does the Kd [2] read?
A: 33.7 nM

Q: What does the source list for H-DEEILWSLVIEMGLDRIKELPEL-OH?
A: Kd [2]: 32 nM; Activity (HeLa [3]): Active

Q: Which Stability [4] does the source give for H-DEEILMSLVIEMGLDRWKELPEL-OH here?
A: Stable

Q: And the Activity [5]?
A: Active

Q: And the Kd [2]?
A: 22.3 nM

Q: And the Activity (HeLa [3])?
A: Active

Q: With H-GLDRIKELPELWLG-OH as the compound, how does the Kd [2] read?
A: 1544 nM

Q: Which Activity (HeLa [6]) does the source give for `CC[C@H](C)[C@H](NC(=O)[C@@H]1CNC(=O)[C@@H](N)CC(=O)N[C@@H](CC(=O)O)C(=O)N[C@@H](CCC(=O)O)C(=O)N1)C(=O)N[C@@H](CC(C)C)C(=O)N[C@@H](CCSC)C(=O)N[C@@H](CO)C(=O)N[C@@H](CC(C)C)C(=O)N[C@H](C(=O)N[C@H](C(=O)N[C@@H](CCC(=O)O)C(=O)N[C@@H](CCSC)C(=O)NCC(=O)N[C@@H](CC(C)C)C(=O)N[C@@H](CC(=O)O)C(=O)N[C@@H](CCCNC(=N)N)C(=O)N[C@@H](Cc1c[nH]c2ccccc12)C(=O)N[C@@H](CCCCN)C(=O)N[C@@H](CCC(=O)O)C(=O)N[C@@H](CC(C)C)C(=O)N1CCC[C@H]1C(=O)N[C@@H](CCC(=O)O)C(=O)N[C@@H](CC(C)C)C(N)=O)[C@@H](C)CC)C(C)C` (HELM PEPTIDE1{D.E.[O=C([C@H](CN[*:3])N[*:1])[*:2]].I.L.M.S.L.V.I.E.M.G.L.D.R.W.K.E.L.P.E.L.[am]}|CHEM1{[N[C@@H](CC(=O)[*:1])C(=O)[*:2]]}$PEPTIDE1,CHEM1,1:R1-1:R1|PEPTIDE1,CHEM1,3:R3-1:R2$$$V2.0) here?
A: Active

Q: What about the inhibition [7] of the same compound?
A: Active

Q: And the “growth inhibition (GI)” value (HeLa [8])?
A: Active

Q: And the Activity (HeLa [9])?
A: Active

Q: And the inhibition [10]?
A: Active

Q: And the “growth inhibition (GI)” value (HeLa [11])?
A: Active

Q: What about the Activity (HeLa [12]) of the same compound?
A: Active

Q: And the Activity (A549)?
A: Active

Q: What about the Activity (HeLa [13]) of the same compound?
A: Active

Q: And the Stability [4]?
A: Stable

Q: What about the Activity (HeLa [14]) of the same compound?
A: Active

Q: And the Activity [5]?
A: Active

Q: What about the inhibition [15] of the same compound?
A: Active

Q: What about the “growth inhibition (GI)” value (MDA-MB-231) of the same compound?
A: Active

Q: And the Activity (HeLa [16])?
A: Active

Q: And the Kd [2]?
A: 21.4 nM

Q: For H-DEEVLMSLVIEMGLDRIKELPEL-OH, which Kd [2] is on record?
A: 37.1 nM

Q: Which Kd [2] does the source give for H-DEEVLMSLVIEM-OH here?
A: 228.2 nM

Q: For H-DEEVLWSLVIEMGLDRWKELPEL-OH, which Kd [2] is on record?
A: 36.2 nM

Q: For H-LPELWLGQNEFDFMTDF-OH, which Kd [2] is on record?
A: 226 nM

Q: For H-DEEVLMSLVIEMGLDRWKELPEL-OH, which Drug uptake [1] is on record?
A: Active

Q: Which Kd [2] does the source give for H-QNEFDFMTDF-OH here?
A: 312.5 nM
